Assay results: ChEMBL document CHEMBL5625190, “Novel fused imidazotriazines acting as promising top. II inhibitors and apoptotic inducers with greater selectivity against head and neck tumors: Design, synthesis, and biological assessments” (Eur J Med Chem, 2023)

Key:
[1] = system: HCT-116; assay: Growth inhibition of human HCT-116 cells assessed as reduction in cell viability at 100 ug/ml by SRB colorimetric assay relative to control; format: functional; conditions: read-out: GI
[2] = system: NCI-H460; assay: Growth inhibition of human NCI-H460 cells assessed as reduction in cell viability at 100 ug/ml by SRB colorimetric assay relative to control; format: functional; conditions: read-out: GI
[3] = Growth inhibition of human Oral epithelial cell assessed as reduction in cell viability at 100 ug/ml by SRB colorimetric assay relative to control; format: toxicity, cell-based; conditions: oral epithelial cells, at 100 µg/mL, read-out: GI
[4] = system: HepG2; assay: Growth inhibition of human HepG2 cells assessed as reduction in cell viability at 100 ug/ml by SRB colorimetric assay relative to control; format: functional; conditions: read-out: GI
[5] = system: MDA-MB-231; assay: Growth inhibition of human MDA-MB-231 cells assessed as reduction in cell viability at 100 ug/ml by SRB colorimetric assay relative to control; format: functional; conditions: read-out: GI
[6] = molecular target: DNA topoisomerase 2-beta (Homo sapiens) (UniProt Q02880); assay: Inhibition of human DNA topoisomerase 2-beta by ELISA method relative to control; conditions: concentration not given here
DNA topoisomerase 2-beta (Homo sapiens), sequence (Q02880 whole entry): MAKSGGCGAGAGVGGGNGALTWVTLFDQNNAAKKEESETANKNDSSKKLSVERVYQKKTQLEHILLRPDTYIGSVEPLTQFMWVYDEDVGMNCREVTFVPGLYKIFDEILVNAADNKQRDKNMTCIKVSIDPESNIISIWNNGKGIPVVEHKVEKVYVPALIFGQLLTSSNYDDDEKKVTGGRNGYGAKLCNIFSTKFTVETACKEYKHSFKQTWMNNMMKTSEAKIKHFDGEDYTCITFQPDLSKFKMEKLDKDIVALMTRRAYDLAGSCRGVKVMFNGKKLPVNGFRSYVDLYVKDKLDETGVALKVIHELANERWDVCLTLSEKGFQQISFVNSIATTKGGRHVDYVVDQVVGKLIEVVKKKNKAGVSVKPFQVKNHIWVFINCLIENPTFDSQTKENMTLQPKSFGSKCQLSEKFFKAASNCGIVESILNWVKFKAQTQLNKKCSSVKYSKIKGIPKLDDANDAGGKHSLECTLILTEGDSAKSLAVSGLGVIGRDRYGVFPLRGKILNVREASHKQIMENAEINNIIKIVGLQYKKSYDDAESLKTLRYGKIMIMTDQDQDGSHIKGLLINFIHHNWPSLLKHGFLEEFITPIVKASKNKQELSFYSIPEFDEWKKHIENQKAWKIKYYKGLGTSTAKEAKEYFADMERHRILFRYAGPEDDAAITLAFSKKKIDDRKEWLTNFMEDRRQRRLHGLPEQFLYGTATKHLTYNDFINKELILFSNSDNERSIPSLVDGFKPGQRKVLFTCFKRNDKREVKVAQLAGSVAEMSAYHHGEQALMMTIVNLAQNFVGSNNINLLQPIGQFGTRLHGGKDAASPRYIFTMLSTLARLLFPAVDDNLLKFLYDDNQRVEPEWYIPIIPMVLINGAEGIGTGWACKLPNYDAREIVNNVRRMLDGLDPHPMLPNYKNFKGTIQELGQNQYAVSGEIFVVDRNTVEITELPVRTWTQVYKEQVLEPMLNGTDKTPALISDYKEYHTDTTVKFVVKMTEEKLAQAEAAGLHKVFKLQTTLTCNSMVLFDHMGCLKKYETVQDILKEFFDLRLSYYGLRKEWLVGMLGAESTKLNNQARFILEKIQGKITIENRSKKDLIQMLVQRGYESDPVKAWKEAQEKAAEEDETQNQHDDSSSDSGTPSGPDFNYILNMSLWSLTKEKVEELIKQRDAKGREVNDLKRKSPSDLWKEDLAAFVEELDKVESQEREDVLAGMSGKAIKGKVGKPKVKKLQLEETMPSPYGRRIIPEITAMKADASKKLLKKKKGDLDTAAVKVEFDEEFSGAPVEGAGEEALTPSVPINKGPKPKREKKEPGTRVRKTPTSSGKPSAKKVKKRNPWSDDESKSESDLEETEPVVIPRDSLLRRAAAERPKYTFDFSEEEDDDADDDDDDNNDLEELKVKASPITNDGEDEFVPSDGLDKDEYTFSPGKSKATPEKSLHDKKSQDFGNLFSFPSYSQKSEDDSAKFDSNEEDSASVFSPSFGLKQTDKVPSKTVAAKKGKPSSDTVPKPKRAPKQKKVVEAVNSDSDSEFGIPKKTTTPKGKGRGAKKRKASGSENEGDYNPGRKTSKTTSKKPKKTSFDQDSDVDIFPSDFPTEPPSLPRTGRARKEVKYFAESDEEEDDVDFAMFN

[7] = system: A549; assay: Growth inhibition of human A549 cells assessed as reduction in cell viability at 100 ug/ml by SRB colorimetric assay relative to control; format: functional; conditions: read-out: GI
[8] = system: MG-63; assay: Growth inhibition of human MG-63 cells assessed as reduction in cell viability at 100 ug/ml by SRB colorimetric assay relative to control; format: functional; conditions: read-out: GI
[9] = system: Caco-2; assay: Growth inhibition of human Caco-2 cells assessed as reduction in cell viability at 100 ug/ml by SRB colorimetric assay relative to control; format: functional; conditions: read-out: GI
[10] = system: MCF7; assay: Growth inhibition of human MCF7 cells assessed as reduction in cell viability at 100 ug/ml by SRB colorimetric assay relative to control; format: functional; conditions: read-out: GI
[11] = system: A-375; assay: Growth inhibition of human A-375 cells assessed as reduction in cell viability at 100 ug/ml by SRB colorimetric assay relative to control; format: functional; conditions: read-out: GI
[12] = system: BT-474; assay: Growth inhibition of human BT-474 cells assessed as reduction in cell viability at 100 ug/ml by SRB colorimetric assay relative to control; format: functional; conditions: read-out: GI
[13] = system: Huh-7; assay: Growth inhibition of human Huh-7 cells assessed as reduction in cell viability at 100 ug/ml by SRB colorimetric assay relative to control; format: functional; conditions: read-out: GI
[14] = system: PC-3; assay: Growth inhibition of human PC-3 cells assessed as reduction in cell viability at 100 ug/ml by SRB colorimetric assay relative to control; format: functional; conditions: read-out: GI
[15] = system: HNO 97 cell line; assay: Growth inhibition of human HNO 97 cell line assessed as reduction in cell viability at 100 ug/ml by SRB colorimetric assay relative to control; format: functional; conditions: read-out: GI

inhibition [6]	Compound	inhibition of growth at 100 µg/mL [1]	inhibition of growth at 100 µg/mL [2]	inhibition at 100 ug/ml [3]	inhibition of growth at 100 µg/mL [4]	inhibition of growth at 100 µg/mL [5]	inhibition of growth at 100 µg/mL [7]	inhibition of growth at 100 µg/mL [8]	inhibition of growth at 100 µg/mL [9]	inhibition of growth at 100 µg/mL [10]	inhibition of growth at 100 µg/mL [11]	inhibition of growth at 100 µg/mL [12]	inhibition of growth at 100 µg/mL [13]	inhibition of growth at 100 µg/mL [14]	inhibition of growth at 100 µg/mL [15]
77.5%	CC(C)c1ccc(C2N=C(N)Nc3nc4ccccc4n32)cc1 (configuration not stated)	55.6%	65.6%	7.69%	63.7%	78.6%	49%	58%	59.2%	55.4%	58.1%	61.7%	54.7%	71.7%	75.7%
–	NC1=Nc2nc3ccccc3n2C(c2cccc(Cl)c2Cl)N1 (configuration not stated)	59.6%	73.1%	38.4%	72.5%	75.1%	67.8%	63.2%	61.1%	63.6%	68.7%	60.4%	67%	71.5%	78.6%
–	COc1cc(C2NC(N)=Nc3nc4ccccc4n32)ccc1OCc1ccccc1 (configuration not stated)	39%	30.4%	21%	41.3%	51.7%	30.5%	13.1%	40.1%	48.9%	45.1%	1%	26.9%	44.6%	63.2%
–	NC1=Nc2nc3ccccc3n2C(c2cccs2)N1 (configuration not stated)	64.4%	58.8%	59.6%	64.9%	38.7%	61.4%	49.9%	62.9%	56.2%	56.4%	5.76%	65%	48%	71.8%
–	NC1=Nc2nc3ccccc3n2C(c2c[nH]c3ccccc23)N1 (configuration not stated)	64.3%	63.5%	51.3%	69.2%	34.3%	58.8%	56.2%	61.7%	56.5%	69.2%	34.4%	65.3%	54.2%	75.3%
–	NC1=Nc2nc3ccccc3n2C(c2ccc([N+](=O)[O-])cc2)N1 (configuration not stated)	61.3%	74.7%	40.3%	74.3%	74.6%	65.6%	53.4%	65.9%	61.2%	58.6%	60.2%	56.9%	61.2%	70.4%
–	CN(C)c1ccc(C2NC(N)=Nc3nc4ccccc4n32)cc1 (configuration not stated)	64.1%	70.9%	14.2%	78.8%	61%	67.7%	58%	64%	63.2%	68.5%	60.1%	70%	57.5%	80.8%
–	NC1=Nc2nc3ccccc3n2C(c2cccc3ccccc23)N1 (configuration not stated)	55.7%	61.1%	45.9%	59%	76.2%	54.4%	58%	59.9%	53.7%	52.8%	61.4%	58.7%	59%	61.1%
–	NC1=NC(c2ccccc2)n2c(nc3ccccc32)N1 (configuration not stated)	61.1%	65.3%	24.4%	66.6%	68.2%	59.1%	56%	61.7%	60.2%	63.4%	51.4%	68.1%	72.7%	78.1%
–	NC1=Nc2nc3ccccc3n2C(c2ccc3ccccc3c2)N1 (configuration not stated)	50.2%	65%	55.7%	45%	66.6%	56.7%	58.6%	61%	48.8%	44.1%	55.3%	54.6%	54.8%	57.3%
–	Cc1ccc(C2NC(N)=Nc3nc4ccccc4n32)o1 (configuration not stated)	60.9%	61.6%	59.7%	61.5%	27.4%	56.2%	50.6%	56.2%	51.6%	58.5%	13.2%	50%	55.2%	57.5%
–	COc1ccc(OC)c(C2N=C(N)Nc3nc4ccccc4n32)c1 (configuration not stated)	49.3%	63.2%	10.2%	63.6%	64.9%	54.9%	46.8%	52.5%	54.4%	52.1%	46.3%	54.8%	46%	76.6%
–	NC1=NC(c2cccnc2)n2c(nc3ccccc32)N1 (configuration not stated)	65.2%	58.1%	52.7%	67.8%	30.5%	55.6%	42.4%	53.7%	60.7%	56%	0.93%	57.2%	52.2%	64.8%
–	COc1cc(C2NC(N)=Nc3nc4ccccc4n32)cc(OC)c1OC (configuration not stated)	63.6%	69.6%	32.7%	73.9%	79.4%	67.5%	59.4%	69%	72%	61.8%	69.9%	70.1%	60%	82.2%
